# What was measured:
# Assay type in all cases: cell-based
# [1] = biological target: Mer (phospho-Mer, MERTK-transfected 293A cells) (Homo sapiens (Human), UniProt Q12866); assay: Mer autophosphorylation ELISA in transient transfected 293A cells (Example H); details: cellular activity; Mer autophosphorylation ELISA in transient transfected 293A cells
# Method in brief: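 Inhibition of cellular Mer autophosphorylation is determined in 293A cells transiently expressing human MERTK after 1 h compound exposure (8 concentrations, serum-free, 0.3% DMSO). Phospho-Mer in clarified lysates is measured by ELISA, with DMSO and reference-inhibitor wells defining the 100% and 0% activity limits.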
# [2] = biological target: KDR (phospho-KDR, VEGF165-stimulated HUVEC cells) (Homo sapiens (Human), UniProt P35968); assay: KDR autophosphorylation ELISA in HUVEC cells (Example G); details: cellular activity; KDR autophosphorylation ELISA in HUVEC cells
# Method in brief: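 Cells seeded, grown 24 h at 37 °C, starved 24 h serum-free; cpd 8-pt curve, 0.3% DMSO, 1 h; VEGF165 100 ng/mL, 5 min; cold PBS wash, lysis with orthovanadate and protease/phosphatase inhibitors; pKDR ELISA; IC50 by 4-parameter logistic regression.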
# [3] = biological target: Met (phospho-Met, HGF-stimulated PC-3 prostate cancer cells) (Homo sapiens (Human), UniProt P08581); assay: Met autophosphorylation ELISA in PC-3 cells (Example F); details: cellular activity; Met autophosphorylation ELISA in PC-3 cells; read-out: c-Met IC50
# Method in brief: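 Sandwich ELISA for phospho-Met (panTyr) in PC-3 lysates. Cells starved 3 h serum-free, compound 1 h (8-pt curve, 0.3% DMSO), HGF 100 ng/mL 10 min. 100% = HGF + DMSO; 0% = HGF + reference inhibitor. IC50 by 4-parameter fit.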
# [4] = biological target: AXL (phospho-AXL, Gas6-stimulated A-172 glioblastoma cells) (Homo sapiens (Human), UniProt P30530); assay: AXL autophosphorylation ELISA in A-172 cells (Example E); details: cellular activity; AXL autophosphorylation ELISA in A-172 cells; read-out: Axl IC50
# Method in brief: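 Phospho-AXL in lysates was quantified by ELISA, normalised to DMSO (100%) and reference inhibitor (0%) controls. IC50 by 4-parameter logistic fit.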
# Chain of Met (phospho-Met, HGF-stimulated PC-3 prostate cancer cells) (P08581 25-1390): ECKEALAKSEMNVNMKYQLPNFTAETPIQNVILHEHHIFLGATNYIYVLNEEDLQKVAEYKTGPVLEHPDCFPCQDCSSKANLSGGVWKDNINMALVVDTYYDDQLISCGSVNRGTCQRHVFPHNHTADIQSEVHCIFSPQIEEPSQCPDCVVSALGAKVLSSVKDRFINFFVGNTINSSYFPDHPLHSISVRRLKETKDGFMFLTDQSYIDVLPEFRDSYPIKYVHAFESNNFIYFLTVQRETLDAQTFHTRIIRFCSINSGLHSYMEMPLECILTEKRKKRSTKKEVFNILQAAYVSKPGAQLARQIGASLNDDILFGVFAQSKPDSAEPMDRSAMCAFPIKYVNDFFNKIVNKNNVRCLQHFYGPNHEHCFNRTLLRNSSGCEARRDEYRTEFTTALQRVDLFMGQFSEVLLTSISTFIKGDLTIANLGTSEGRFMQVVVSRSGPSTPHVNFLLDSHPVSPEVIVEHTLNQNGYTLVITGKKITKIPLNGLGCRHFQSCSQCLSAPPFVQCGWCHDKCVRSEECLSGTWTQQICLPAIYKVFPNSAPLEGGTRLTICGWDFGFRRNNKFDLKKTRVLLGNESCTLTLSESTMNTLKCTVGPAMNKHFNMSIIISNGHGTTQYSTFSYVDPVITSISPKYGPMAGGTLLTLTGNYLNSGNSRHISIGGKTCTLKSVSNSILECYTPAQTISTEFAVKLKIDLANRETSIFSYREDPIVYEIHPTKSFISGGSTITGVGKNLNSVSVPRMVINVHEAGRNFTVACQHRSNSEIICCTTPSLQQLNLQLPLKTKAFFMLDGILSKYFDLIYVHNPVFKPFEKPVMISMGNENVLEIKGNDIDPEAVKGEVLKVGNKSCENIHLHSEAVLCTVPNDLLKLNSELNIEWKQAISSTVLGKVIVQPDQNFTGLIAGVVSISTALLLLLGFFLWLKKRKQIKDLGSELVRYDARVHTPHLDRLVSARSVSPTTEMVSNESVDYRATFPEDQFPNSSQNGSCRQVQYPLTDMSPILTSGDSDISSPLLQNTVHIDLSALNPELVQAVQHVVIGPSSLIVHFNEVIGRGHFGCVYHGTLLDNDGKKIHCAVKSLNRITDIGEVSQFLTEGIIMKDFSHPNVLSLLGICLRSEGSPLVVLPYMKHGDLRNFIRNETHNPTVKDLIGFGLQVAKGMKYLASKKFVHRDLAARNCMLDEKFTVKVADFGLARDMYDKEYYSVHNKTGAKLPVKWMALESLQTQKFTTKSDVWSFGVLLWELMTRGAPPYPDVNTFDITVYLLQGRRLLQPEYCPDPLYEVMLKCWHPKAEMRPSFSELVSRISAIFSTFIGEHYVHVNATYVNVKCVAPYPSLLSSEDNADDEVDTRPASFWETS
# Chain of AXL (phospho-AXL, Gas6-stimulated A-172 glioblastoma cells) (P30530 26-894): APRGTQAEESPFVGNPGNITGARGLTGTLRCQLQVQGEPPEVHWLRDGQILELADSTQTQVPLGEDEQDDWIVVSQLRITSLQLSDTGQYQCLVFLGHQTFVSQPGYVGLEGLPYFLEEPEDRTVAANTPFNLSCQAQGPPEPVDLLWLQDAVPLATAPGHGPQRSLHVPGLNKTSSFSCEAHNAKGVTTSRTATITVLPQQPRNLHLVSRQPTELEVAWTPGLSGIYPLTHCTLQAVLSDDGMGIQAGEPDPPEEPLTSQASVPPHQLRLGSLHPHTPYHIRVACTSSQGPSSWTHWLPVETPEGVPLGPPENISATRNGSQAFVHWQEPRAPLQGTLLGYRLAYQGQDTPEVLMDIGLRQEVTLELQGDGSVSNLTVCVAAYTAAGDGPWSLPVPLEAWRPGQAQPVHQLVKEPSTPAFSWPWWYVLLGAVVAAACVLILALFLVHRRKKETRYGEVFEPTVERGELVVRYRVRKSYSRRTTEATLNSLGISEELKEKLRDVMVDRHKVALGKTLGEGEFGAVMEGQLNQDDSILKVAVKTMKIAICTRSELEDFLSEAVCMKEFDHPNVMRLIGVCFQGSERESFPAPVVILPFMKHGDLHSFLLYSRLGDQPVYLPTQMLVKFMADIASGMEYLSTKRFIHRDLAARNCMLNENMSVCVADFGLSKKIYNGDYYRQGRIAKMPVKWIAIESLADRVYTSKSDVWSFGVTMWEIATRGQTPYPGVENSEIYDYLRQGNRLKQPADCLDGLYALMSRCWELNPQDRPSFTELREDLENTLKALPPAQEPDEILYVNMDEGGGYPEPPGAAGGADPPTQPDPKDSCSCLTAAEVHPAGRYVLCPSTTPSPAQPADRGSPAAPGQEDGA
# Chain of KDR (phospho-KDR, VEGF165-stimulated HUVEC cells) (P35968 20-1356): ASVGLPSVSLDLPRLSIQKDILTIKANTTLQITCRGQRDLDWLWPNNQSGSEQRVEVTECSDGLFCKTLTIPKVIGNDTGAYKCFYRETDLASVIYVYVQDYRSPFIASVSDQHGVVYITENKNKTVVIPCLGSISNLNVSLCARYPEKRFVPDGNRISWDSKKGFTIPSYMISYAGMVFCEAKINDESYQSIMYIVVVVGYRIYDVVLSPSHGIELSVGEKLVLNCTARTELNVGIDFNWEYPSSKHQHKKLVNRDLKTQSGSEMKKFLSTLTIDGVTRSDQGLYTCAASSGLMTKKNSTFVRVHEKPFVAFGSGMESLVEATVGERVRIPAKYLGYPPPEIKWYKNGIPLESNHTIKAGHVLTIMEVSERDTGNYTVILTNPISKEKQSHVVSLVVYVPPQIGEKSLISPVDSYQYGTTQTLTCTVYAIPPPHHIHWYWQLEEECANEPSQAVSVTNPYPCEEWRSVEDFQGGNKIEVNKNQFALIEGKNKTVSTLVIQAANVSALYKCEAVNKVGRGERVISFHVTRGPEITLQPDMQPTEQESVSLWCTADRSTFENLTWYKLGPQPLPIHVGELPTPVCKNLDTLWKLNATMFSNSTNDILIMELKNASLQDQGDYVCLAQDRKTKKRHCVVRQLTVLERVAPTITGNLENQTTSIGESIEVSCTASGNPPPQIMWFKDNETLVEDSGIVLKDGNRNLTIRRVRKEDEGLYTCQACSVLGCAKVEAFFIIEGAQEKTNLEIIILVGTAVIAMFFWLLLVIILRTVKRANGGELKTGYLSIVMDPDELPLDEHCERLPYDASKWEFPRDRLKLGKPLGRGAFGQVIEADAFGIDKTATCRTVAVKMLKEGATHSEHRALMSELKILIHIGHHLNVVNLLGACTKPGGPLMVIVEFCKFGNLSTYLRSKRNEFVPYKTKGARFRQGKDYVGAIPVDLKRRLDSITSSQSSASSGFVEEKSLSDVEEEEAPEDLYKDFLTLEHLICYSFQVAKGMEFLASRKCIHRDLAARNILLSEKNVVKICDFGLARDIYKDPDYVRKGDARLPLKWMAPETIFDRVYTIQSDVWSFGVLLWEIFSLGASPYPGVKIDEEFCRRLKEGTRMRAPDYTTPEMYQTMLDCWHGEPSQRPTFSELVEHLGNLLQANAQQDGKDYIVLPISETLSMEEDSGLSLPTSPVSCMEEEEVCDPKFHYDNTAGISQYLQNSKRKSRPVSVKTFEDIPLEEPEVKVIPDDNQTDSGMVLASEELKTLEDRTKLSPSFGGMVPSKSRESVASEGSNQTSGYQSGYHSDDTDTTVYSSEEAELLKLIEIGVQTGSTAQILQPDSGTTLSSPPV
# Chain of Mer (phospho-Mer, MERTK-transfected 293A cells) (Q12866 21-999): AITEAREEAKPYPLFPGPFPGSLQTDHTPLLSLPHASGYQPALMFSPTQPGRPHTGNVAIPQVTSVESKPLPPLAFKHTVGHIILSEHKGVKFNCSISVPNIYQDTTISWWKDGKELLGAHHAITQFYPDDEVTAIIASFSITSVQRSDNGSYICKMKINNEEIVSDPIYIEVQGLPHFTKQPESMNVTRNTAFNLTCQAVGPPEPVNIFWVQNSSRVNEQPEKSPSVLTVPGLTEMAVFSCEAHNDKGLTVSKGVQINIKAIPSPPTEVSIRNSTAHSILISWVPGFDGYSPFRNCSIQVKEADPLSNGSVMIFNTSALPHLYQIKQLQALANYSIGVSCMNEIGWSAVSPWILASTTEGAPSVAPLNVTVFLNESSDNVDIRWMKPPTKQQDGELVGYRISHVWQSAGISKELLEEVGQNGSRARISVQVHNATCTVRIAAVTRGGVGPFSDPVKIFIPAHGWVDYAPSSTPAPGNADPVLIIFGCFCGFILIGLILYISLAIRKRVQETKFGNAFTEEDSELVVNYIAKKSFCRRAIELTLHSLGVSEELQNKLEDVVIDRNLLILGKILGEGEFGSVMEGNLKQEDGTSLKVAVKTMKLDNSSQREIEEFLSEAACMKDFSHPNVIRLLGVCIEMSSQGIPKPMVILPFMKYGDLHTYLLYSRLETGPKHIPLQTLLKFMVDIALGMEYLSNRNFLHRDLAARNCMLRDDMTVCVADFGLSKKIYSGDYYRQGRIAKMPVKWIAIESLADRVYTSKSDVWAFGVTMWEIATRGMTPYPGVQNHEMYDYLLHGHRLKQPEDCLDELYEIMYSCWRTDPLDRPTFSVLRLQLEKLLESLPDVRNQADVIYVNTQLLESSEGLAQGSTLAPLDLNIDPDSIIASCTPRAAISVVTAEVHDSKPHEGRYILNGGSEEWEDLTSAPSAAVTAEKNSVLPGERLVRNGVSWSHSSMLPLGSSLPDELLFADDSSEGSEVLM
IC50 [1] [nM],IC50 [2] [nM],IC50 [3] [nM],IC50 [4] [nM],Structure (SMILES)
< 100,< 100,< 100,< 100,"COc1cc2nccc(Oc3ccc(NC(=O)c4c(C)nc(C)c(-c5ccc(F)cc5C)c4O)cc3)c2nc1Cl [Compound 735, N-[4-[(6-chloro-7-methoxy-1,5-naphthyridin-4-yl)oxy]phenyl]-5-(4-fluoro-2-methylphenyl)-4-hydroxy-2,6-dimethylpyridine-3-carboxamide]"
< 100,< 100,< 100,< 100,"COc1cc2nccc(Oc3ccc(NC(=O)c4c(C)ncc(-c5ccc(F)c(C)c5)c4O)cc3F)c2nc1OC [Compound 794, N-[4-[(6,7-dimethoxy-1,5-naphthyridin-4-yl)oxy]-3-fluorophenyl]-5-(4-fluoro-3-methylphenyl)-4-hydroxy-2-methylpyridine-3-carboxamide]"
< 100,> 300,< 100,< 100,"COc1cc2nccc(Oc3cc(C)c(NC(=O)c4cn(C)c(C)c(-c5ccc(F)cc5)c4=O)cc3F)c2nc1OC [Compound 744, N-[4-[(6,7-dimethoxy-1,5-naphthyridin-4-yl)oxy]-5-fluoro-2-methylphenyl]-5-(4-fluorophenyl)-1,6-dimethyl-4-oxopyridine-3-carboxamide]"
< 100,100 to 300,< 100,< 100,"C=Cc1c(C)c(C(=O)Nc2ccc(Oc3ccnc4cc(OCCOC)c(OC)nc34)cc2)c(=O)n(-c2ccc(F)cc2)c1C [Compound 741, 5-ethenyl-1-(4-fluorophenyl)-N-[4-[[6-methoxy-7-(2-methoxyethoxy)-1,5-naphthyridin-4-yl]oxy]phenyl]-4,6-dimethyl-2-oxopyridine-3-carboxamide]"
< 100,> 300,< 100,< 100,"COc1cc2nccc(Oc3cc(F)c(NC(=O)c4cn(C)c(C)c(-c5ccc(F)cc5)c4=O)cc3C)c2nc1OC [Compound 746, N-[4-[(6,7-dimethoxy-1,5-naphthyridin-4-yl)oxy]-2-fluoro-5-methylphenyl]-5-(4-fluorophenyl)-1,6-dimethyl-4-oxopyridine-3-carboxamide]"
< 100,> 300,< 100,100 to 300,"COc1cnc2c(Oc3ccc(NC(=O)c4c(C)c(C)nn(-c5ccc(F)cc5)c4=O)cc3F)ccnc2c1 [Compound 734, N-[3-fluoro-4-[(7-methoxy-1,5-naphthyridin-4-yl)oxy]phenyl]-2-(4-fluorophenyl)-5,6-dimethyl-3-oxopyridazine-4-carboxamide]"
< 100,> 300,< 100,< 100,"COc1cnc2c(Oc3ccc(NC(=O)c4c5n(c(C)c(-c6ccc(F)cc6C)c4=O)CCOC5)cc3F)ccnc2c1 [Compound 784, N-[3-fluoro-4-[(7-methoxy-1,5-naphthyridin-4-yl)oxy]phenyl]-7-(4-fluoro-2-methylphenyl)-6-methyl-8-oxo-3,4-dihydro-1H-pyrido[2,1-c][1,4]oxazine-9-carboxamide]"

# The next lines start with the molecule.
Structure (SMILES),IC50 [1] [nM],IC50 [2] [nM],IC50 [3] [nM],IC50 [4] [nM]
"COc1cc2nccc(Oc3ccc(NC(=O)c4c(C)c(Br)c(C)n(-c5ccc(F)cc5)c4=O)cc3)c2nc1OC [Compound 313, 5-Bromo-N-[4-[(6,7-dimethoxy-1,5-naphthyridin-4-yl)oxy]phenyl]-1-(4-fluorophenyl)-4,6-dimethyl-2-oxopyridine-3-carboxamide]",< 100,< 100,< 100,< 100
"C=C(C)c1cnc2c(Oc3ccc(NC(=O)c4nnc(C)c(-c5ccc(F)cc5)c4OC)cc3F)ccnc2c1 [Compound 478, 5-(4-fluorophenyl)-N-[3-fluoro-4-[(7-prop-1-en-2-yl-1,5-naphthyridin-4-yl)oxy]phenyl]-4-methoxy-6-methylpyridazine-3-carboxamide]",< 100,< 100,< 100,< 100
"COc1cc2nccc(Oc3ccc(NC(=O)c4cn(C(F)F)c(C)c(-c5ccc(F)cc5)c4=O)cc3F)c2nc1OC [Compound 668, 1-(difluoromethyl)-N-[4-[(6,7-dimethoxy-1,5-naphthyridin-4-yl)oxy]-3-fluorophenyl]-5-(4-fluorophenyl)-6-methyl-4-oxopyridine-3-carboxamide]",< 100,< 100,< 100,< 100
"COCc1nc(C)c(-c2ccc(F)cc2)c(OC)c1C(=O)Nc1ccc(Oc2ccnc3cc(OC)c(OC)nc23)c(F)c1 [Compound 663, N-[4-[(6,7-dimethoxy-1,5-naphthyridin-4-yl)oxy]-3-fluorophenyl]-5-(4-fluorophenyl)-4-methoxy-2-(methoxymethyl)-6-methylpyridine-3-carboxamide]",< 100,> 300,< 100,< 100
"COc1cnc2c(Oc3ccc(NC(=O)c4cn(CC(F)F)c(C)c(-c5ccc(F)cc5C)c4=O)cc3)ccnc2c1 [Compound 731, 1-(2,2-difluoroethyl)-5-(4-fluoro-2-methylphenyl)-N-[4-[(7-methoxy-1,5-naphthyridin-4-yl)oxy]phenyl]-6-methyl-4-oxopyridine-3-carboxamide]",< 100,> 300,< 100,< 100
"COCCOc1cc2nccc(Oc3ccc(NC(=O)c4cn(C)c(C)c(-c5ccc(F)cc5)c4=O)cc3F)c2nc1OC [Compound 486, N-[3-fluoro-4-[[6-methoxy-7-(2-methoxyethoxy)-1,5-naphthyridin-4-yl]oxy]phenyl]-5-(4-fluorophenyl)-1,6-dimethyl-4-oxopyridine-3-carboxamide]",< 100,< 100,< 100,< 100
"COc1cc2nccc(Oc3ccc(NC(=O)c4c(OC)n(C)c(C)c(-c5ccc(F)cc5)c4=O)cc3F)c2nc1OC [Compound 648, N-[4-[(6,7-dimethoxy-1,5-naphthyridin-4-yl)oxy]-3-fluorophenyl]-5-(4-fluorophenyl)-2-methoxy-1,6-dimethyl-4-oxopyridine-3-carboxamide]",< 100,100 to 300,< 100,< 100
"COCc1ccc(C(=O)Nc2ccc(Oc3ccnc4cc(OC)c(OC)nc34)c(F)c2)c(=O)n1-c1ccc(F)cc1 [Compound 358, N-[4-[(6,7-dimethoxy-1,5-naphthyridin-4-yl)oxy]-3-fluorophenyl]-1-(4-fluorophenyl)-6-(methoxymethyl)-2-oxopyridine-3-carboxamide]",< 100,< 100,< 100,< 100
"COc1ccc(-c2c(C)nc(C)c(C(=O)Nc3ccc(Oc4ccnc5cc(OC)cnc45)c(F)c3)c2O)c(OC)c1 [Compound 695, 5-(2,4-dimethoxyphenyl)-N-[3-fluoro-4-[(7-methoxy-1,5-naphthyridin-4-yl)oxy]phenyl]-4-hydroxy-2,6-dimethylpyridine-3-carboxamide]",< 100,< 100,< 100,> 300
"COc1cc2nccc(Oc3ccc(NC(=O)c4n[nH]c(C)cc4=O)cc3F)c2nc1OC [Compound 536, N-[4-[(6,7-dimethoxy-1,5-naphthyridin-4-yl)oxy]-3-fluorophenyl]-6-methyl-4-oxo-1H-pyridazine-3-carboxamide]",> 300,> 300,> 300,> 300
"COc1cc2nccc(Oc3ccc(NC(=O)c4c(C)c(F)cn(-c5ccc(F)cc5)c4=O)cc3)c2nc1OC [Compound 665, N-[4-[(6,7-dimethoxy-1,5-naphthyridin-4-yl)oxy]phenyl]-5-fluoro-1-(4-fluorophenyl)-4-methyl-2-oxopyridine-3-carboxamide]",< 100,100 to 300,< 100,< 100
"COc1cnc2c(Oc3ccc(NC(=O)c4cnc(C)c(-c5ccc(F)c(OC)c5)c4O)cc3F)ccnc2c1 [Compound 670, N-[3-fluoro-4-[(7-methoxy-1,5-naphthyridin-4-yl)oxy]phenyl]-5-(4-fluoro-3-methoxyphenyl)-4-hydroxy-6-methylpyridine-3-carboxamide]",< 100,< 100,< 100,< 100
"COc1nc2c(Oc3ccc(NC(=O)c4c(C)nc(C)n(-c5ccc(F)cc5)c4=O)cc3F)ccnc2cc1C [Compound 468, N-[3-fluoro-4-[(6-methoxy-7-methyl-1,5-naphthyridin-4-yl)oxy]phenyl]-1-(4-fluorophenyl)-2,4-dimethyl-6-oxopyrimidine-5-carboxamide]",< 100,< 100,< 100,< 100

# From US12371428B2 (Exelixis, Inc., priority 2019, dated 2025)
